{"source": "patent US12227500B2", "about": "“Substituted pyrrolo[2,3-b]pyridines for suppressing toxic endoplasmic reticulum stress” (THE TRUSTEES OF COLUMBIA UNIVERSITY IN THE CITY OF NEW YORK, priority 2018, dated 2025)", "test_in_all_cases": "Radiolabeled ATP kinase assay, panel of 371 kinases (Table S6)", "format_in_all_cases": "biochemical", "key": {"[1]": {"biological_target": "T1, panel of 371 human kinases (Homo sapiens, UniProt Q16832)", "T1 construct": "purchased Reaction Biology Corp", "settings": "DDR2; 0.1 μM; 10 μM ATP; read-out: % Enzyme Activity (relative to DMSO controls)", "description": "(§1) ; FIG. 38C). […]. Further targeted analyses, such as genetic knock-down or knock-out, may be warranted to parse the role of these additional kinases in our model of neurodegeneration."}, "[2]": {"biological_target": "T2, panel of 371 human kinases (Homo sapiens, UniProt Q9P0L2)", "T2 construct": "purchased Reaction Biology Corp", "T2 sequence (Q9P0L2 whole entry)": "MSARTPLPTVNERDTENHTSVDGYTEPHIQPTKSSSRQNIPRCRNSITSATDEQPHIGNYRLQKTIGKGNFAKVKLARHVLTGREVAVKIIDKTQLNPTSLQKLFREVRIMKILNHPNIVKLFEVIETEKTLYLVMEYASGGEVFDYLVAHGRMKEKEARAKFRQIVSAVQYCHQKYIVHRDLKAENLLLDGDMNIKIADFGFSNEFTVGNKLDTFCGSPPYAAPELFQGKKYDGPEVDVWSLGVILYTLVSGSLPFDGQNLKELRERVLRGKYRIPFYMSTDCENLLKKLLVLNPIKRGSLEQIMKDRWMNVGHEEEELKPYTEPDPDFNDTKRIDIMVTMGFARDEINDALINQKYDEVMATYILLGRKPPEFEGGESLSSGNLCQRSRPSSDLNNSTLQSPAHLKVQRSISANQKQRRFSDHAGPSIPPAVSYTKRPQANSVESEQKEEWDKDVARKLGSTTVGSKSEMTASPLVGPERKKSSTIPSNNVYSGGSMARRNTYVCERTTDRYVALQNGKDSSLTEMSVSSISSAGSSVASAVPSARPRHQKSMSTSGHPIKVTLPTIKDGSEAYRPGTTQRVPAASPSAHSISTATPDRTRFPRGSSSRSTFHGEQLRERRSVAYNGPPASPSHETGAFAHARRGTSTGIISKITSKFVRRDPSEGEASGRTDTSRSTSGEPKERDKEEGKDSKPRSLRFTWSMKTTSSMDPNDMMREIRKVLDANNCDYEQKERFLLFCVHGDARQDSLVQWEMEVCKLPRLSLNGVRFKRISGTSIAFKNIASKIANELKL", "settings": "MARK1; 0.1 μM; 10 μM ATP; read-out: % Enzyme Activity (relative to DMSO controls)", "description": "as §1"}, "[3]": {"biological_target": "T3, panel of 371 human kinases (Homo sapiens, UniProt P04049)", "T3 construct": "purchased Reaction Biology Corp", "settings": "RAF1; 0.1 μM; 10 μM ATP; read-out: % Enzyme Activity (relative to DMSO controls)", "description": "as §1"}, "[4]": {"biological_target": "T4, panel of 371 human kinases (Homo sapiens, UniProt P78362)", "T4 construct": "purchased Reaction Biology Corp", "T4 sequence (P78362 whole entry)": "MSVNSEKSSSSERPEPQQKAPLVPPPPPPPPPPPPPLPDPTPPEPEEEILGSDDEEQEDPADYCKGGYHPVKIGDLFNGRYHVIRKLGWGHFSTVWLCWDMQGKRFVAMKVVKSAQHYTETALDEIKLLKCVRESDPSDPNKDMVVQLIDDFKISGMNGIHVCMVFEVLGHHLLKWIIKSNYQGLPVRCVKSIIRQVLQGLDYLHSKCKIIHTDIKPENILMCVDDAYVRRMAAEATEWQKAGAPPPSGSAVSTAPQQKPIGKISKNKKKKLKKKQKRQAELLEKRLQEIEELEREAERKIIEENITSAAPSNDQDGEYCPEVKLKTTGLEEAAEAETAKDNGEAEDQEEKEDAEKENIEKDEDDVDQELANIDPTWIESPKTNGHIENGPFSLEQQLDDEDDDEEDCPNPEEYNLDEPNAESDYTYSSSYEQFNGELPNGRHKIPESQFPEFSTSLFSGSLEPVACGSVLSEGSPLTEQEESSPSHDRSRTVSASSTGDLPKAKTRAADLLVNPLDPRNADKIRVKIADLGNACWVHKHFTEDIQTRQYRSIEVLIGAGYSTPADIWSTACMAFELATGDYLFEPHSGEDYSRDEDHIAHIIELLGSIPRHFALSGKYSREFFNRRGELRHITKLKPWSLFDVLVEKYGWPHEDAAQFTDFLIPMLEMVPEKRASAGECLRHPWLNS", "settings": "SRPK2; 0.1 μM; 10 μM ATP; read-out: % Enzyme Activity (relative to DMSO controls)", "description": "as §1"}, "[5]": {"biological_target": "T5, panel of 371 human kinases (Homo sapiens, UniProt Q6VAB6)", "T5 construct": "purchased Reaction Biology Corp", "settings": "KSR2; 0.1 μM; 10 μM ATP; read-out: % Enzyme Activity (relative to DMSO controls)", "description": "as §1"}, "[6]": {"biological_target": "T6, panel of 371 human kinases (Homo sapiens, UniProt P42681)", "T6 construct": "purchased Reaction Biology Corp", "T6 sequence (P42681 whole entry)": "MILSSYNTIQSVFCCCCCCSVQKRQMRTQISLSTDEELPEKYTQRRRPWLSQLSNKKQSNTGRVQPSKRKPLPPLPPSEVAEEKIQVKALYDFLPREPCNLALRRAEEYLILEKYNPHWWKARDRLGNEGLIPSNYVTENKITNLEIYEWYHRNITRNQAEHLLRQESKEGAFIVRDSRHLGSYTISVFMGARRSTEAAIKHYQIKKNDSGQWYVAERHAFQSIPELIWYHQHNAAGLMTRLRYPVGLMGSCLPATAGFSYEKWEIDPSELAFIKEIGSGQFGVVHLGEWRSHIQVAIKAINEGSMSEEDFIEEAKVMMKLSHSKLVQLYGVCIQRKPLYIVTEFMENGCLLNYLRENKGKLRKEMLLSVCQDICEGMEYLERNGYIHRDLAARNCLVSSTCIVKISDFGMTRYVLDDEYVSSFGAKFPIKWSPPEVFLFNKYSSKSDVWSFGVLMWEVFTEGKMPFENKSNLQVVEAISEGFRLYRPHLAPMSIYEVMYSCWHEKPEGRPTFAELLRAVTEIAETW", "settings": "TXK; 0.1 μM; 10 μM ATP; read-out: % Enzyme Activity (relative to DMSO controls)", "description": "as §1"}, "[7]": {"biological_target": "T7, panel of 371 human kinases (Homo sapiens, UniProt P49761)", "T7 construct": "purchased Reaction Biology Corp", "T7 sequence (P49761 whole entry)": "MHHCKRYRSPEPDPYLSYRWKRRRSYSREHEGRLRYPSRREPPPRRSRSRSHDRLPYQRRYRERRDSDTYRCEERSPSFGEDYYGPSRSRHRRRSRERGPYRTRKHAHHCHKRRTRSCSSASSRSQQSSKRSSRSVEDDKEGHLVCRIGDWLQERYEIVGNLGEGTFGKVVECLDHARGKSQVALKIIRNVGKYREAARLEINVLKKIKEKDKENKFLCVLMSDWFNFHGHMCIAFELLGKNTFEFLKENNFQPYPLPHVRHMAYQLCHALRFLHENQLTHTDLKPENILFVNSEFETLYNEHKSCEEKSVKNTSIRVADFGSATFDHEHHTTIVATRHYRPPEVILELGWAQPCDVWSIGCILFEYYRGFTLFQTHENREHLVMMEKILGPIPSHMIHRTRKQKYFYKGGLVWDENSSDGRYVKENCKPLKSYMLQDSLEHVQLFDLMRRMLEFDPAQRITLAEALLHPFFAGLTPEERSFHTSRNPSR", "settings": "CLK3; 0.1 μM; 10 μM ATP; read-out: % Enzyme Activity (relative to DMSO controls)", "description": "as §1"}, "[8]": {"biological_target": "T8, panel of 371 human kinases (Homo sapiens, UniProt Q9UHD2)", "T8 construct": "purchased Reaction Biology Corp", "T8 sequence (Q9UHD2 whole entry)": "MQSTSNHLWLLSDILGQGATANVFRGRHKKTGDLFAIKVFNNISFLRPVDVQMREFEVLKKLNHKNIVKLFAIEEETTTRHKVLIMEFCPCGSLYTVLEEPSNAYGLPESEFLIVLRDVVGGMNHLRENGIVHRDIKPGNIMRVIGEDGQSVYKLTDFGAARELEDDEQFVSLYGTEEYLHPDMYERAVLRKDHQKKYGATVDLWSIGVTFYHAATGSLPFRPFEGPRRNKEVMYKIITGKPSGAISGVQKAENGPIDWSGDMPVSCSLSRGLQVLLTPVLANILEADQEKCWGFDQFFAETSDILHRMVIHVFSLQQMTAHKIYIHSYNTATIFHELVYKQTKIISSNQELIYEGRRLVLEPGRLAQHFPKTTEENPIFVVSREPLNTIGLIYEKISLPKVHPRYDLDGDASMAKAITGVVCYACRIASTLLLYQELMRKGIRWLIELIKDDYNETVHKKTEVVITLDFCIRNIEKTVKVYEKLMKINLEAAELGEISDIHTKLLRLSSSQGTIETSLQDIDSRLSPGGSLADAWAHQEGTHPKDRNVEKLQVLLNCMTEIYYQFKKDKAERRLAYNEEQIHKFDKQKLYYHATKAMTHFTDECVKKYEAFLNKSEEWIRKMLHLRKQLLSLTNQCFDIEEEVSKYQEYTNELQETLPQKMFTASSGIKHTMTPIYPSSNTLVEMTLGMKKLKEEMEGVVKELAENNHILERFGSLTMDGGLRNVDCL", "settings": "TBK1; 0.1 μM; 10 μM ATP; read-out: % Enzyme Activity (relative to DMSO controls)", "description": "as §1"}, "[9]": {"biological_target": "T9, panel of 371 human kinases (Homo sapiens, UniProt Q9Y243)", "T9 construct": "purchased Reaction Biology Corp", "settings": "AKT3; 0.1 μM; 10 μM ATP; read-out: % Enzyme Activity (relative to DMSO controls)", "description": "as §1"}, "[10]": {"biological_target": "T10, panel of 371 human kinases (Homo sapiens, UniProt Q9UPZ9)", "T10 construct": "purchased Reaction Biology Corp", "settings": "LCK2/ICK; 0.1 μM; 10 μM ATP; read-out: % Enzyme Activity (relative to DMSO controls)", "description": "as §1"}, "[11]": {"biological_target": "T11, panel of 371 human kinases (Homo sapiens, UniProt Q8NEV4)", "T11 construct": "purchased Reaction Biology Corp", "settings": "MYO3A; 0.1 μM; 10 μM ATP; read-out: % Enzyme Activity (relative to DMSO controls)", "description": "as §1"}, "[12]": {"biological_target": "T12, panel of 371 human kinases (Homo sapiens, UniProt P04626)", "T12 construct": "purchased Reaction Biology Corp", "settings": "ERBB2/HER2; 0.1 μM; 10 μM ATP; read-out: % Enzyme Activity (relative to DMSO controls)", "description": "as §1"}, "[13]": {"biological_target": "T13, panel of 371 human kinases (Homo sapiens, UniProt Q96PF2)", "T13 construct": "purchased Reaction Biology Corp", "T13 sequence (Q96PF2 whole entry)": "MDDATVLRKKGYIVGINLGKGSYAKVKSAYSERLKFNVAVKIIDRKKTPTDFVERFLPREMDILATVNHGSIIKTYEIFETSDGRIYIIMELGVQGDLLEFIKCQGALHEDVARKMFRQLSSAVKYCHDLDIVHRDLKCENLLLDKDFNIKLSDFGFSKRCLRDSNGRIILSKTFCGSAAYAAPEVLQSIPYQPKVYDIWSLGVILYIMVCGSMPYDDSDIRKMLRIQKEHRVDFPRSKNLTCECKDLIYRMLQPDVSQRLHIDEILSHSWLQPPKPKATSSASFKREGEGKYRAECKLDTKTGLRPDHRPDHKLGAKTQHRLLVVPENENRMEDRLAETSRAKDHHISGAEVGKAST", "settings": "TSSK2; 0.1 μM; 10 μM ATP; read-out: % Enzyme Activity (relative to DMSO controls)", "description": "as §1"}, "[14]": {"biological_target": "T14, panel of 371 human kinases (Homo sapiens, UniProt P27448)", "T14 construct": "purchased Reaction Biology Corp", "settings": "MARK3; 0.1 μM; 10 μM ATP; read-out: % Enzyme Activity (relative to DMSO controls)", "description": "as §1"}, "[15]": {"biological_target": "T15, panel of 371 human kinases (Homo sapiens, UniProt O00506)", "T15 construct": "purchased Reaction Biology Corp", "settings": "STK25/YSK1; 0.1 μM; 10 μM ATP; read-out: % Enzyme Activity (relative to DMSO controls)", "description": "as §1"}, "[16]": {"biological_target": "T16, panel of 371 human kinases (Homo sapiens, UniProt Q8N5S9)", "T16 construct": "purchased Reaction Biology Corp", "settings": "CAMKK1; 0.1 μM; 10 μM ATP; read-out: % Enzyme Activity (relative to DMSO controls)", "description": "as §1"}, "[17]": {"biological_target": "T17, panel of 371 human kinases (Homo sapiens, UniProt Q9UQM7)", "T17 construct": "purchased Reaction Biology Corp", "T17 sequence (Q9UQM7 whole entry)": "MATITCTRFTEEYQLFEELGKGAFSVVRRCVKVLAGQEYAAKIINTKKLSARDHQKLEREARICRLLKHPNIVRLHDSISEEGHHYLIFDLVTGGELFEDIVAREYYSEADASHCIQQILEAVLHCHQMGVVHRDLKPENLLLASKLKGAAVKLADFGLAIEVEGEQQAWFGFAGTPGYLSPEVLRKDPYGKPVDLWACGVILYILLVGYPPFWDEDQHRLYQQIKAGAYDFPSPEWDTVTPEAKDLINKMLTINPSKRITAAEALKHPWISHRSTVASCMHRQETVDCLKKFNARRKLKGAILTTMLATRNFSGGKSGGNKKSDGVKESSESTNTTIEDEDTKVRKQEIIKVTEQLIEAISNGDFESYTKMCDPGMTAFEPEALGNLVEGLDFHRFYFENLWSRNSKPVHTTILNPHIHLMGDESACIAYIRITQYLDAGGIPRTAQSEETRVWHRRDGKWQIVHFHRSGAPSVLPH", "settings": "CAMK2a; 0.1 μM; 10 μM ATP; read-out: % Enzyme Activity (relative to DMSO controls)", "description": "as §1"}, "[18]": {"biological_target": "T18, panel of 371 human kinases (Homo sapiens, UniProt O43353)", "T18 construct": "purchased Reaction Biology Corp", "settings": "RIPK2; 0.1 μM; 10 μM ATP; read-out: % Enzyme Activity (relative to DMSO controls)", "description": "as §1"}, "[19]": {"biological_target": "T19, panel of 371 human kinases (Homo sapiens, UniProt Q05655)", "T19 construct": "purchased Reaction Biology Corp", "T19 sequence (Q05655 whole entry)": "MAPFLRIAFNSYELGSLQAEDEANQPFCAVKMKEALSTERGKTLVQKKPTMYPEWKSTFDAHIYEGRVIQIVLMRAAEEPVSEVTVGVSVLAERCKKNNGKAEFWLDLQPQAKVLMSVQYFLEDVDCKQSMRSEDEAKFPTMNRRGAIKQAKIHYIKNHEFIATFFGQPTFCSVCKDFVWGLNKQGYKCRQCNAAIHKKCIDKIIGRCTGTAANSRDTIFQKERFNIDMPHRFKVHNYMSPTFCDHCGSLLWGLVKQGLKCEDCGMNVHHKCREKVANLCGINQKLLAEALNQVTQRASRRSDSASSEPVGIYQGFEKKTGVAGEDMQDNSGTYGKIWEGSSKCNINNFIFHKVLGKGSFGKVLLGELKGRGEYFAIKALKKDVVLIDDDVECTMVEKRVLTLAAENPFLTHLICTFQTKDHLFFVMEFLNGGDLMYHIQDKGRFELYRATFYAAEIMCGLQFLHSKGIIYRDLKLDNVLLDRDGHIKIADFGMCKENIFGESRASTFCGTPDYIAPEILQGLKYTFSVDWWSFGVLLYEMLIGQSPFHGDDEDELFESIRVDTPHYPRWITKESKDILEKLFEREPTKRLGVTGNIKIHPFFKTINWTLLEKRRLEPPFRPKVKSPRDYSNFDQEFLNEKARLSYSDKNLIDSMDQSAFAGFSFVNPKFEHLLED", "settings": "PKCd; 0.1 μM; 10 μM ATP; read-out: % Enzyme Activity (relative to DMSO controls)", "description": "as §1"}, "[20]": {"biological_target": "T20, panel of 371 human kinases (Homo sapiens, UniProt P19784)", "T20 construct": "purchased Reaction Biology Corp", "settings": "CK2a2; 0.1 μM; 10 μM ATP; read-out: % Enzyme Activity (relative to DMSO controls)", "description": "as §1"}, "[21]": {"biological_target": "T21, panel of 371 human kinases (Homo sapiens, UniProt O94804)", "T21 construct": "purchased Reaction Biology Corp", "settings": "LOK/STK10; 0.1 μM; 10 μM ATP; read-out: % Enzyme Activity (relative to DMSO controls)", "description": "as §1"}, "[22]": {"biological_target": "T22, panel of 371 human kinases (Homo sapiens, UniProt Q52WX2)", "T22 construct": "purchased Reaction Biology Corp", "settings": "SBK1; 0.1 μM; 10 μM ATP; read-out: % Enzyme Activity (relative to DMSO controls)", "description": "as §1"}, "[23]": {"biological_target": "T23, panel of 371 human kinases (Homo sapiens, UniProt P29323)", "T23 construct": "purchased Reaction Biology Corp", "settings": "EPHB2; 0.1 μM; 10 μM ATP; read-out: % Enzyme Activity (relative to DMSO controls)", "description": "as §1"}, "[24]": {"biological_target": "T24, panel of 371 human kinases (Homo sapiens, UniProt Q8N752)", "T24 construct": "purchased Reaction Biology Corp", "settings": "CK1a1L; 0.1 μM; 10 μM ATP; read-out: % Enzyme Activity (relative to DMSO controls)", "description": "as §1"}}}
{"smiles": "OCCN1CCN(Cc2ccc(-c3cnc4[nH]cc(-c5cccc(Cl)c5)c4c3)cc2)CC1", "note": "[Compound 12k, 2-(4-(4-(3-(3-Chlorophenyl)-1H-pyrrolo[2,3-b]pyridin-5-yl)benzyl)piperazin-1-yl)ethan-1-ol]", "values": [{"measurement": "remaining activity at 0.1 µM", "setting": "[1]", "value": 100, "unit": "%"}, {"measurement": "remaining activity at 0.1 µM", "setting": "[2]", "value": 52.5, "unit": "%"}, {"measurement": "remaining activity at 0.1 µM", "setting": "[3]", "value": 105, "unit": "%"}, {"measurement": "remaining activity at 0.1 µM", "setting": "[4]", "value": 93.6, "unit": "%"}, {"measurement": "remaining activity at 0.1 µM", "setting": "[5]", "value": 106, "unit": "%"}, {"measurement": "remaining activity at 0.1 µM", "setting": "[6]", "value": 87, "unit": "%"}, {"measurement": "remaining activity at 0.1 µM", "setting": "[7]", "value": 91, "unit": "%"}, {"measurement": "remaining activity at 0.1 µM", "setting": "[8]", "value": 75.2, "unit": "%"}, {"measurement": "remaining activity at 0.1 µM", "setting": "[9]", "value": 97.2, "unit": "%"}, {"measurement": "remaining activity at 0.1 µM", "setting": "[10]", "value": 109, "unit": "%"}, {"measurement": "remaining activity at 0.1 µM", "setting": "[11]", "value": 79.1, "unit": "%"}, {"measurement": "remaining activity at 0.1 µM", "setting": "[12]", "value": 96, "unit": "%"}, {"measurement": "remaining activity at 0.1 µM", "setting": "[13]", "value": 108, "unit": "%"}, {"measurement": "remaining activity at 0.1 µM", "setting": "[14]", "value": 46.6, "unit": "%"}, {"measurement": "remaining activity at 0.1 µM", "setting": "[15]", "value": 72.4, "unit": "%"}, {"measurement": "remaining activity at 0.1 µM", "setting": "[16]", "value": 102, "unit": "%"}, {"measurement": "remaining activity at 0.1 µM", "setting": "[17]", "value": 110, "unit": "%"}, {"measurement": "remaining activity at 0.1 µM", "setting": "[18]", "value": 92.3, "unit": "%"}, {"measurement": "remaining activity at 0.1 µM", "setting": "[19]", "value": 102, "unit": "%"}, {"measurement": "remaining activity at 0.1 µM", "setting": "[20]", "value": 89, "unit": "%"}, {"measurement": "remaining activity at 0.1 µM", "setting": "[21]", "value": 59.1, "unit": "%"}, {"measurement": "remaining activity at 0.1 µM", "setting": "[22]", "value": 98.7, "unit": "%"}, {"measurement": "remaining activity at 0.1 µM", "setting": "[23]", "value": 98.3, "unit": "%"}, {"measurement": "remaining activity at 0.1 µM", "setting": "[24]", "value": 107, "unit": "%"}]}
{"smiles": "CN1CCN(Cc2ccc(-c3cnc4[nH]cc(-c5ccc6[nH]ccc6c5)c4c3)cc2)CC1", "note": "[Compound 1, 3-(1H-Indol-5-yl)-5-(4-((4-methylpiperazin-1-yl)methyl)phenyl)-1H-pyrrolo[2,3-b]pyridine, reference compound]", "values": [{"measurement": "remaining activity at 0.1 µM", "setting": "[1]", "value": 102, "unit": "%"}, {"measurement": "remaining activity at 0.1 µM", "setting": "[2]", "value": 86.2, "unit": "%"}, {"measurement": "remaining activity at 0.1 µM", "setting": "[3]", "value": 104, "unit": "%"}, {"measurement": "remaining activity at 0.1 µM", "setting": "[4]", "value": 80.3, "unit": "%"}, {"measurement": "remaining activity at 0.1 µM", "setting": "[5]", "value": 102, "unit": "%"}, {"measurement": "remaining activity at 0.1 µM", "setting": "[6]", "value": 85.3, "unit": "%"}, {"measurement": "remaining activity at 0.1 µM", "setting": "[7]", "value": 95.3, "unit": "%"}, {"measurement": "remaining activity at 0.1 µM", "setting": "[8]", "value": 82.8, "unit": "%"}, {"measurement": "remaining activity at 0.1 µM", "setting": "[9]", "value": 98.4, "unit": "%"}, {"measurement": "remaining activity at 0.1 µM", "setting": "[10]", "value": 111, "unit": "%"}, {"measurement": "remaining activity at 0.1 µM", "setting": "[11]", "value": 88.6, "unit": "%"}, {"measurement": "remaining activity at 0.1 µM", "setting": "[12]", "value": 95.3, "unit": "%"}, {"measurement": "remaining activity at 0.1 µM", "setting": "[13]", "value": 115, "unit": "%"}, {"measurement": "remaining activity at 0.1 µM", "setting": "[14]", "value": 83.2, "unit": "%"}, {"measurement": "remaining activity at 0.1 µM", "setting": "[15]", "value": 102, "unit": "%"}, {"measurement": "remaining activity at 0.1 µM", "setting": "[16]", "value": 103, "unit": "%"}, {"measurement": "remaining activity at 0.1 µM", "setting": "[17]", "value": 101, "unit": "%"}, {"measurement": "remaining activity at 0.1 µM", "setting": "[18]", "value": 78.5, "unit": "%"}, {"measurement": "remaining activity at 0.1 µM", "setting": "[19]", "value": 92.3, "unit": "%"}, {"measurement": "remaining activity at 0.1 µM", "setting": "[20]", "value": 84.3, "unit": "%"}, {"measurement": "remaining activity at 0.1 µM", "setting": "[21]", "value": 73.2, "unit": "%"}, {"measurement": "remaining activity at 0.1 µM", "setting": "[22]", "value": 99, "unit": "%"}, {"measurement": "remaining activity at 0.1 µM", "setting": "[23]", "value": 88.6, "unit": "%"}, {"measurement": "remaining activity at 0.1 µM", "setting": "[24]", "value": 94.8, "unit": "%"}]}
